Type in all cases: in vivo
The test system of one series is Digitaria ciliaris. In words: Test Example 5: herbicidal effect by foliage application, plastic box (symbol F). To be noted: 320 g/ha, 3 weeks after application. A digest of the protocol: (§1)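 Visual herbicidal score, taken three weeks post-application, of seedlings sprayed on the foliage with water-diluted emulsion at a predetermined amount; plants were 14 days old, greenhouse-raised at 25° C. to 30° C.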

The next series has as its system rice plant. In words: Test Example 5: effect on crop by foliage application, plastic box (symbol b). The settings on record: 320 g/ha, 3 weeks after application. Summed up:
(§2)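 Diluvial soil, sterilized and boxed (21 × 13 × 7 cm), received spot-sown seed covered by about 1.5 cm soil; plants were then greenhouse-grown at 25–30° C.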

Another series deals with Stellaria media. The series can be described thus: Test Example 4: herbicidal effect by soil treatment (symbol P). The settings on record: for Herbicidal effect grade, P: Stellaria media: application herbicide amount 320 g/ha. Summed up:
(§3)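 Seeds were sown in sterilized diluvial soil, covered with about 1.5 cm of soil, and the soil surface was sprayed with a water-diluted emulsion of the compound at a predetermined rate. Plants grew in a greenhouse at 25° C. to 30° C.; effects were scored visually 3 weeks after application.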

For series [1], the system named is Scirpus juncoides. The series can be described thus: Test Example 2: herbicidal activity, application during weed generation in submerged conditions (symbol B). The settings on record: Table 23; application herbicide amount 320 g/ha; grade 0-5 by criteria of Test Example 1. A digest of the protocol: (§4)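 Flooded-soil post-emergence test: emulsion of compound, water-diluted to target rate, applied to paddy water surface at 1–2 leaf stage of mixed-sown weeds (alluvial soil, 4 cm water, 25–30° C. greenhouse); visual rating 3 weeks after application.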

The subject of series [2] is Chenopodium album. The series can be described thus: Test Example 5: herbicidal effect by foliage application, plastic box (symbol O). The settings on record: 320 g/ha, 3 weeks after application. A digest of the protocol: as §1
The test system of series [3] is Echinochloa crus-galli var. crus-galli. In words: Test Example 3: herbicidal effect by foliage application, Wagner pot (symbol H). To be noted: application herbicide amount 320 g/ha; for H (Echinochloa crus-galli var. crus-galli) herbicidal effect grade: Table 24. Summed up:
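Rating at 3 weeks post-spray, by defined criteria. Treatment: emulsion diluted with water to a predetermined amount, applied evenly to foliage of 14-day-old plants raised in alluvial soil flooded 0.1–0.5 cm deep at 25–30 °C, rice co-sown.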

Series [4] deals with Scirpus juncoides. The series can be described thus: Test Example 1: herbicidal activity, application before weed generation in submerged conditions (symbol B). The settings on record: application herbicide amount 320 g/ha. A digest of the protocol: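 Scores run 0 to 5 by herbicidal ratio, with 5 meaning 90% or more and 0 meaning 5% or lower, read 3 weeks after treatment. Compound was applied as a diluted emulsion to the water surface of submerged alluvial-soil pots on the day weed seeds were sown.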

Series [5] deals with Chenopodium album. In words: Test Example 4: herbicidal effect by soil treatment (symbol O). The settings on record: for Herbicidal effect grade, O: Chenopodium album: application herbicide amount 320 g/ha. Summed up:
as §3

In another series the test system is Avena fatua. In words: Test Example 4: herbicidal effect by soil treatment (symbol I). The settings on record: for Herbicidal effect grade, I: Avena fatua: application herbicide amount 320 g/ha. Summed up:
as §3

In series [6] the test system is Echinochloa oryzacola Vasing. In words: Test Example 2: herbicidal activity, application during weed generation in submerged conditions (symbol A). The settings on record: Table 23; application herbicide amount 320 g/ha; grade 0-5 by criteria of Test Example 1. A digest of the protocol: as §4
A further series deals with rapeseed. In words: Test Example 5: effect on crop by foliage application, plastic box (symbol g). To be noted: 320 g/ha, 3 weeks after application. A digest of the protocol: as §2
The test system of the next series is beet. The series can be described thus: Test Example 4: effect on crop by soil treatment (symbol f). The settings on record: for Effect on crop grade, f: beet: application herbicide amount 320 g/ha. A digest of the protocol: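 Grown at 25° C. to 30° C. in a greenhouse, the crops came from seed sown spot-wise in sterilized diluvial soil under roughly 1.5 cm of covering soil.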

As for `CON=C(C)CC1CC(OC(=O)c2cnoc2C2CC2)=C(c2c(C)cc(C)cc2C)C1=O` (stereo not drawn) [1-103], in the series with Digitaria ciliaris, the “F: Digitaria ciliaris, herbicidal effect (criteria 0-5)” value is on record as 5 (Herbicidal ratio of 90% or more (almost completely withered)). In addition, the “b: directly sowed rice plant, effect on crop (criteria 0-5)” value with rice plant is recorded as 5 (Herbicidal ratio of 90% or more (almost completely withered)). For the same molecule, in the series with Stellaria media (320 g/ha), the “P: Stellaria media, herbicidal effect grade” value is reported as 0 (Herbicidal ratio of 5% or lower (almost no effect)). In addition, the “Herbicidal effect grade, B: Scirpus juncoides” value (from here on “Herbicidal effect grade, B”) is 4 (Herbicidal ratio of 70% or higher and lower than 90%) in the series on Scirpus juncoides [1]; 5 (Herbicidal ratio of 90% or more (almost completely withered)) with Scirpus juncoides [4]. The “O: Chenopodium album, herbicidal effect (criteria 0-5)” value in the series on Chenopodium album [2] was 2 (Herbicidal ratio of 20% or higher and lower than 40%). For the same molecule, in series [3], the “herbicidal effect on H (Echinochloa crus-galli var. crus-galli), grade 0-5” value is given as 5 (Herbicidal ratio of 90% or more (almost completely withered)). Besides, the “O: Chenopodium album, herbicidal effect grade” value in the series on Chenopodium album [5] (320 g/ha) was 0 (Herbicidal ratio of 5% or lower (almost no effect)). Also, the “I: Avena fatua, herbicidal effect grade” value in the series on Avena fatua (320 g/ha) was 3 (Herbicidal ratio of 40% or higher and lower than 70%). The “Herbicidal effect grade, A: Echinochloa oryzacola Vasing.” value in series [6] is listed as 5 (Herbicidal ratio of 90% or more (almost completely withered)). The “g: rapeseed, effect on crop (criteria 0-5)” value in the series on rapeseed was 4 (Herbicidal ratio of 70% or higher and lower than 90%). For the same molecule, the “f: beet, effect grade on crop” value in the series with beet (320 g/ha) is given as 0 (Herbicidal ratio of 5% or lower (almost no effect)).
With `Cc1cc(Br)cc(C)c1C1=C(O)CC(CC(=O)C2CC2)C1=O` (racemic) [10-004], the “F: Digitaria ciliaris, herbicidal effect grade” value with Digitaria ciliaris was 5 (Herbicidal ratio of 90% or more (almost completely withered)). For the same molecule, the “b: directly sowed rice plant, effect on crop grade” value with rice plant is reported as 5 (Herbicidal ratio of 90% or more (almost completely withered)). In the series with Stellaria media, the “Herbicidal effect grade, P: Stellaria media” value was 0 (Herbicidal ratio of 5% or lower (almost no effect)). In addition, the “Herbicidal effect grade, B” value with Scirpus juncoides [1] was 0 (Herbicidal ratio of 5% or lower (almost no effect)). Moreover, the “O: Chenopodium album, herbicidal effect grade” value in the series with Chenopodium album [2] is given as 0 (Herbicidal ratio of 5% or lower (almost no effect)). For the same molecule, in series [3], the “H (Echinochloa crus-galli var. crus-galli) herbicidal effect grade” value is listed as 5 (Herbicidal ratio of 90% or more (almost completely withered)). The “B (Scirpus juncoides) herbicidal effect grade” value with Scirpus juncoides [4] was 0 (Herbicidal ratio of 5% or lower (almost no effect)). Besides, the “Herbicidal effect grade, O: Chenopodium album” value in the series with Chenopodium album [5] is given as 0 (Herbicidal ratio of 5% or lower (almost no effect)). In addition, the “Herbicidal effect grade, I: Avena fatua” value in the series with Avena fatua is 3 (Herbicidal ratio of 40% or higher and lower than 70%). For the same molecule, in [6], the “Herbicidal effect grade, A: Echinochloa oryzacola Vasing.” value is recorded as 5 (Herbicidal ratio of 90% or more (almost completely withered)). Moreover, the “g: rapeseed, effect on crop grade” value with rapeseed was 4 (Herbicidal ratio of 70% or higher and lower than 90%). For the same molecule, the “Effect on crop grade, f: beet” value in the series with beet was 0 (Herbicidal ratio of 5% or lower (almost no effect)).
`CON=C(CC1CC(O)=C(c2c(C)cc(-c3ccccc3)cc2C)C1=O)C1CC1` (mixture of isomers) [9-028]: the “F: Digitaria ciliaris, herbicidal effect grade” value in the series on Digitaria ciliaris is on record as 5 (Herbicidal ratio of 90% or more (almost completely withered)). Besides, the “b: directly sowed rice plant, effect on crop grade” value in the series with rice plant is 5 (Herbicidal ratio of 90% or more (almost completely withered)). Also, the “Herbicidal effect grade, P: Stellaria media” value in the series on Stellaria media is reported as 0 (Herbicidal ratio of 5% or lower (almost no effect)). For the same molecule, the “Herbicidal effect grade, B” value with Scirpus juncoides [1] was 4 (Herbicidal ratio of 70% or higher and lower than 90%). Further, the “O: Chenopodium album, herbicidal effect grade” value in the series on Chenopodium album [2] was 2 (Herbicidal ratio of 20% or higher and lower than 40%). The “H (Echinochloa crus-galli var. crus-galli) herbicidal effect grade” value in series [3] is on record as 5 (Herbicidal ratio of 90% or more (almost completely withered)). Also, in the series on Scirpus juncoides [4], the “B (Scirpus juncoides) herbicidal effect grade” value is on record as 5 (Herbicidal ratio of 90% or more (almost completely withered)). Also, the “Herbicidal effect grade, O: Chenopodium album” value in the series with Chenopodium album [5] is recorded as 0 (Herbicidal ratio of 5% or lower (almost no effect)). The “Herbicidal effect grade, I: Avena fatua” value with Avena fatua was 3 (Herbicidal ratio of 40% or higher and lower than 70%). In addition, in series [6], the “Herbicidal effect grade, A: Echinochloa oryzacola Vasing.” value is listed as 5 (Herbicidal ratio of 90% or more (almost completely withered)). In addition, the “g: rapeseed, effect on crop grade” value in the series with rapeseed was 4 (Herbicidal ratio of 70% or higher and lower than 90%). The “Effect on crop grade, f: beet” value in the series on beet is listed as 0 (Herbicidal ratio of 5% or lower (almost no effect)).
